Assay results from patent US10168338B2, “Methods of identifying modulators of sestrin-gator-2 interaction for modulating mTORC1 activity” (Whitehead Institute for Biomedical Research, priority 2014, dated 2019).
pEC50: −log10 of the molar value.

Legend:
[1] = biological target: T1, Sestrin-GATOR2 interaction (Homo sapiens, UniProt P58004); experiment: Effect of specific amino acids on Sestrin-GATOR2 interaction (FLAG-WDR24 immunoprecipitation, immunoblot); type: cell-based; details: HEK-293T stably expressing FLAG-WDR24; starvation/restimulation, pre- or post-lysis addition, washes of immunoprecipitates
T1 construct: To isolate the FLAG-WDR24/endogenous-Sestrin2 complex; endogenous in cells; host or cells: HEK-293T cells stably expressing FLAG-WDR24; Sestrin2 and the other GATOR2 subunits are endogenous
T1 sequence (P58004 1-480): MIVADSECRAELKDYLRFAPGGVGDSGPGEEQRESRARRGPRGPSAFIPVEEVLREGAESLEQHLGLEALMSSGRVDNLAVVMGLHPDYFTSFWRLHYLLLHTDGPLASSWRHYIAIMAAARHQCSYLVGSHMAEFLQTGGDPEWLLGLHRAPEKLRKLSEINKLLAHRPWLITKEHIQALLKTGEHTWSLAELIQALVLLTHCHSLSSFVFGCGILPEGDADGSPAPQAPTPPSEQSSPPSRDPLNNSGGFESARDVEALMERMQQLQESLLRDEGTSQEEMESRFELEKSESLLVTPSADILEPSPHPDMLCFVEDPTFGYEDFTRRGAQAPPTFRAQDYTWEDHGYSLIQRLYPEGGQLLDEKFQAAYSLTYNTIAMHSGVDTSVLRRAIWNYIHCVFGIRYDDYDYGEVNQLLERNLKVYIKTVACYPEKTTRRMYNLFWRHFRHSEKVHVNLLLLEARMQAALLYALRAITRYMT
Procedure: In order to further explore if specific amino acid levels affected the Sestrin-GATOR2 interaction, HEK-293T cells stably expressing the FLAG-tagged GATOR2 component WDR24 (and FLAG-tagged metap2 as a control) were starved of either all amino acids (ALL); only leucine, arginine, and lysine (LRK); only leucine (L); only arginine (R); or only lysine (K) for 50 minutes, or starved for 50 minutes and restimulated for 10 minutes with the indicated amino acids.
HEK-293T cells stably expressing the FLAG-tagged GATOR2 component WDR24 were starved of all amino acids for 50 minutes. Individual amino acids were added pre-lysis to the cell culture media or post-lysis to cell lysates prior to FLAG immunoprecipitation.
Finally, HEK-293T cells stably expressing the FLAG-tagged GATOR2 component WDR24 were starved of all amino acids for 50 minutes. Immunoprecipitates were subjected to washes containing the indicated amounts of leucine or arginine and analyzed along with cell lysates by immunoblotting for the indicated proteins as shown in FIG. 8C.

mTORC1 = mTORC1 signaling in HEK-293T cells (S6K1 phosphorylation immunoblot); type: cell-based, human; details: Homo sapiens; HEK-293T starved of leucine 50 minutes, restimulated 10 minutes; read-out: half-maximal effect on mTORC1 activity in cells
Procedure: Immunoprecipitated proteins were denatured by the addition of 50 μl of sample buffer and boiling for 5 minutes as described (Kim et al., 2002), resolved by 8%-16% SDS-PAGE, and analyzed by immunoblotting using the appropriate antibody (antibodies to phospho-T389 S6K1, S6K1, Sestrin2, mTOR, Mios and FLAG all obtained from Cell Signaling Technology; antibodies to WDR24 and WDR59 were generously provided by Jianxin Xie at Cell Signaling Technology).
(§1) In order to determine the effect of amino acids on the GATOR2-Sestrin interaction, transfected cells were incubated in amino acid free RPMI for 50 minutes and then stimulated with amino acids for 10 minutes. For glucose starvation, cells were incubated in RPMI media lacking glucose but containing amino acids and dialyzed serum for 50 minutes, followed by a 10 minute restimulation with 5 mM D-Glucose. For insulin deprivation, cells were incubated in RPMI without serum for 50 minutes and restimulated with 1 μg/ml insulin for 10 minutes. Finally, when Torin1 or Rapamycin was used, cells were incubated with 250 nM of each throughout the starvation and restimulation period.

[2] = biological target: T2, GATOR2-Sestrin2 interaction (Homo sapiens, UniProt P58004); experiment: Sestrin2-GATOR2 interaction in HEK-293T cells after starvation/restimulation (co-immunoprecipitation); type: cell-based
T2 construct: To isolate the FLAG-WDR24/endogenous-Sestrin2 complex; endogenous in cells; host or cells: HEK-293T cells stably expressing FLAG-WDR24; Sestrin2 and the other GATOR2 subunits are endogenous
T2 sequence (P58004 1-480): T1 sequence (P58004 1-480)
Procedure: as §1
HEK-293T cells stably expressing FLAG-WDR24 or the control protein FLAG-metap2 (as described in Example 1) were starved for leucine, arginine, or all amino acids for 50 minutes. In some samples, cells were re-stimulated with leucine, arginine, or all amino acids for 10 minutes and then FLAG immunoprecipitates prepared from cell lysates. Immunoprecipitates and lysates were analyzed by immunoblotting for indicated proteins. Removal of either leucine or arginine from the cell media inhibited mTORC1 signaling, as indicated by S6K1 phosphorylation, to similar extents. Strikingly, however, only leucine starvation caused Sestrin2 to bind to GATOR2 inducing the interaction as effectively as complete amino acid starvation (FIG. 9A). […] Leucine starvation and stimulation also strongly regulated the interaction of endogenous Sestrin1, but not endogenous Sestrin3, with GATOR2 (Figure not shown).

CC(C)C[C@H](N)C(=O)O [leucine]
disruption of the Sestrin-GATOR2 interaction [1]: disrupts the Sestrin-GATOR2 interaction | pEC50 (mTORC1): 4.40 to 4.70 | pEC50 ([2]; HEK-293T starved of leucine 50 minutes, restimulated 10 minutes, read-out: half-maximal effect on the Sestrin2-GATOR2 interaction in cells): 4.40 to 4.70 | effect of re-addition on Sestrin2 binding to GATOR2 in cells ([2]; starved 50 minutes, re-stimulated 10 minutes): rapidly reversed the binding
